19 compounds from patent US9730937B2, “RAF kinase modulator compounds and methods of use thereof” (AMBIT BIOSCIENCES CORPORATION, priority 2008, dated 2017) can be followed below.

For assay [1], the system named is panel of 290 distinct kinases (321 in the larger panel), excluding mutant variants. The settings on record: kinase selectivity score, class symbols.
Assay [2] concerns the target mutant BRAF kinase (Homo sapiens (Human), UniProt P15056, V600E). To be noted: read-out: BRAF V600E Kd, class symbols.

Like-named read-outs stand apart in the source and are kept apart here.

Chain of mutant BRAF kinase (P15056 whole entry V600E): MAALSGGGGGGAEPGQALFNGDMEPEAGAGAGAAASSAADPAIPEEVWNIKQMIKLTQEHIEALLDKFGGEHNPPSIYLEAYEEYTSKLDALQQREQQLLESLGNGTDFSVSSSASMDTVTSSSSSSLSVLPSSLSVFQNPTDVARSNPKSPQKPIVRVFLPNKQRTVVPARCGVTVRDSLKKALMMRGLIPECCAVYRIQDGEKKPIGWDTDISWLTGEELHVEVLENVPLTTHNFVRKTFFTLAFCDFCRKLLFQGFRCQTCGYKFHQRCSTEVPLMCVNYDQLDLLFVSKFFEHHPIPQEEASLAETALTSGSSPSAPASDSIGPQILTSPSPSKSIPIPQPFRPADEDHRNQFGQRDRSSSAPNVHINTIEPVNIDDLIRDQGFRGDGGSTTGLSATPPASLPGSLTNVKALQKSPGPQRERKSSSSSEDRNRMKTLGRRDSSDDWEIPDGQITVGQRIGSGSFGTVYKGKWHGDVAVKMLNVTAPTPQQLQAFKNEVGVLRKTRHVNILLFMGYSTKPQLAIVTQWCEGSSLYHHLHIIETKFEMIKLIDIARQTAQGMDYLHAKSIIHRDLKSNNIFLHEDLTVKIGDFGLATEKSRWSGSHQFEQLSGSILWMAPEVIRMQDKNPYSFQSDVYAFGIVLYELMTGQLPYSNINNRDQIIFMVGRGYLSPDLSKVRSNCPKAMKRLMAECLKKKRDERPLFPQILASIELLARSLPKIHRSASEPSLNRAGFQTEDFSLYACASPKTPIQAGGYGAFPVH

For the compound `COc1cc2ncnc(Sc3cccc(NC(=O)Nc4cc(C(C)(C)C)on4)c3)c2cc1OCCN1CCN(C)CC1` [Ex 67, 1-(5-tert-butylisoxazol-3-yl)-3-(3-(7-methoxy-6-(2-(4-methylpiperazin-1-yl)ethoxy)quinazolin-4-ylthio)phenyl)urea], the S35 result in assay [1] (290 distinct kinases) was “C (0.20 < C ≦ 0.40)”. Moreover, the Kd (as a rule, the free concentration of one partner at which half of the binding sites on the other are occupied at equilibrium, for simple one-to-one binding) in assay [2] was below 250 nM.

For `COc1cc2ncnc(Sc3cccc(NC(=O)Nc4cc(C(C)(C)C)on4)c3)c2cc1OCCN1CCN(CCO)CC1` [Ex 68, 1-(5-tert-butylisoxazol-3-yl)-3-(3-(6-(2-(4-(2-hydroxyethyl)piperazin-1-yl)ethoxy)-7-methoxyquinazolin-4-ylthio)phenyl)urea], the S35 entry in assay [1] (290 distinct kinases) was “C (0.20 < C ≦ 0.40)”. Moreover, the equilibrium dissociation constant (Kd) in assay [2] was below 250 nM.

`COc1cc2ncnc(Sc3cccc(NC(=O)Nc4cc(C(C)(C)C)on4)c3)c2cc1OCCN1CCN(S(C)(=O)=O)CC1` [Ex 69, 1-(5-tert-butylisoxazol-3-yl)-3-(3-(7-methoxy-6-(2-(4-(methylsulfonyl)piperazin-1-yl)ethoxy)quinazolin-4-ylthio)phenyl)urea]: in assay [1] (290 distinct kinases), the S35 entry is reported as “C (0.20 < C ≦ 0.40)”. Further, in assay [2], the equilibrium dissociation constant (Kd) was below 250 nM.

Regarding `COc1cc2c(Sc3cccc(NC(=O)Nc4cc(C(C)(C)C)on4)c3)ncnc2cc1OCCCN1CCN(C)CC1` [Ex 73, 1-(5-tert-butylisoxazol-3-yl)-3-(3-(6-methoxy-7-(3-(4-methylpiperazin-1-yl)propoxy)quinazolin-4-ylthio)phenyl)urea], the S35 entry in assay [1] (290 distinct kinases) is on record as “D (D > 0.40)”. The Kd in assay [2] is below 250 nM.

Consider `COc1cc2c(Sc3cccc(NC(=O)Nc4cc(C(C)(C)C)on4)c3)ncnc2cc1OCCCN1CCN(CCO)CC1` [Ex 75, 1-(5-tert-butylisoxazol-3-yl)-3-(3-(7-(3-(4-(2-hydroxyethyl)piperazin-1-yl)propoxy)-6-methoxyquinazolin-4-ylthio)phenyl)urea], for which the S35 entry in assay [1] (290 distinct kinases) was “D (D > 0.40)”. Moreover, the Kd in assay [2] is below 250 nM.

On to `COc1cc2c(Sc3cccc(NC(=O)Nc4cc(C(C)(C)C)on4)c3)ncnc2cc1OCCCN1CCCCC1` [Ex 76, 1-(5-tert-butylisoxazol-3-yl)-3-(3-(6-methoxy-7-(3-(piperidin-1-yl)propoxy)quinazolin-4-ylthio)phenyl)urea], for which the S35 entry in assay [1] (290 distinct kinases) is “D (D > 0.40)”. For the same compound, the Kd in assay [2] was below 250 nM.

With `COc1cc2c(Sc3cccc(NC(=O)Nc4cc(C(C)(C)C)on4)c3)ncnc2cc1OCCCN1CCN(S(C)(=O)=O)CC1` [Ex 77, 1-(5-tert-butylisoxazol-3-yl)-3-(3-(6-methoxy-7-(3-(4-(methylsulfonyl)piperazin-1-yl)propoxy)quinazolin-4-ylthio)phenyl)urea], in assay [1] (290 distinct kinases), the S35 result is on record as “D (D > 0.40)”. Besides, the Kd in assay [2] is below 250 nM.

As for `COc1cc2c(Sc3cccc(NC(=O)Nc4cc(C(C)(C)C)on4)c3)ncnc2cc1OCCN1CCOCC1` [Ex 79, (1-(5-tert-butylisoxazol-3-yl)-3-(3-(6-methoxy-7-(2-morpholinoethoxy)quinazolin-4-ylthio)phenyl)urea)], the S35 entry in assay [1] (290 distinct kinases) is “D (D > 0.40)”. Besides, the Kd in assay [2] was below 250 nM.

As to `COc1cc2c(Sc3cccc(NC(=O)Nc4cc(C(C)(C)C)on4)c3)ncnc2cc1OCCN1CCCCC1` [Ex 80, 1-(5-tert-butylisoxazol-3-yl)-3-(3-(6-methoxy-7-(2-(piperidin-1-yl)ethoxy)quinazolin-4-ylthio)phenyl)urea], in assay [1] (290 distinct kinases), the S35 result was “C (0.20 < C ≦ 0.40)”. Also, the Kd in assay [2] is below 250 nM.

Regarding `COc1cc2c(Sc3cccc(NC(=O)Nc4cc(C(C)(C)C)on4)c3)ncnc2cc1OCCN1CCN(S(C)(=O)=O)CC1` [Ex 81, 1-(5-tert-butylisoxazol-3-yl)-3-(3-(6-methoxy-7-(2-(4-(methylsulfonyl)piperazin-1-yl)ethoxy)quinazolin-4-ylthio)phenyl)urea], the S35 entry in assay [1] (290 distinct kinases) is recorded as “C (0.20 < C ≦ 0.40)”. For the same compound, the Kd in assay [2] is below 250 nM.

With `COc1cc2c(Sc3cccc(NC(=O)Nc4cc(C(C)(C)C)on4)c3)ncnc2cc1OCCN1CCN(C)CC1` [Ex 83, 1-(5-tert-butylisoxazol-3-yl)-3-(3-(6-methoxy-7-(2-(4-methylpiperazin-1-yl)ethoxy)quinazolin-4-ylthio)phenyl)urea], the S35 entry in assay [1] (290 distinct kinases) was “C (0.20 < C ≦ 0.40)”. The dissociation constant Kd in assay [2] was below 250 nM.

Consider `CC(C)(C)c1cc(NC(=O)Nc2cccc(Sc3ncnc4ccc(OCCCN5CCS(=O)(=O)CC5)cc34)c2)no1` [Ex 90, 1-(5-tert-butyl-isoxazol-3-yl)-3-(3-{6-[3-(1,1-dioxo-thiomorpholin-4-yl)-propoxy]-quinazolin-4-ylsulfanyl}-phenyl)-urea], for which the S35 result in assay [1] (290 distinct kinases) was “C (0.20 < C ≦ 0.40)”. Besides, the Kd in assay [2] was below 250 nM.

Consider `COc1cc2ncnc(Oc3cccc(NC(=O)Nc4cc(C(C)(C)C)on4)c3)c2cc1OCCN1CCS(=O)(=O)CC1` [Ex 91, 1-(5-tert-butyl-isoxazol-3-yl)-3-(3-{6-[2-(1,1-dioxo-thiomorpholin-4-yl)-ethoxy]-7-methoxy-quinazolin-4-yloxy}-phenyl)-urea], for which, in assay [1] (290 distinct kinases), the S35 result is “C (0.20 < C ≦ 0.40)”. In assay [2], the Kd is below 250 nM.

Regarding `CC(C)(C)c1cc(NC(=O)Nc2cccc(Oc3ncnc4ccc(-c5ccc(CNCCS(C)(=O)=O)o5)cc34)c2)no1` [Ex 92, 1-(5-tert-butylisoxazol-3-yl)-3-{3-[6-(5-{[2-(methylsulfonyl)ethylamino]methyl}furan-2-yl)quinazolin-4-yloxy]phenyl}urea], the S35 entry in assay [1] (290 distinct kinases) is recorded as “C (0.20 < C ≦ 0.40)”. In assay [2], the dissociation constant (Kd) was below 250 nM.

As for `COc1cc2c(Oc3cccc(NC(=O)Nc4cc(C(C)(C)C)on4)c3)ncnc2cc1O` [Ex 95, 1-(5-tert-butylisoxazol-3-yl)-3-(3-(7-hydroxy-6-methoxyquinazolin-4-yloxy)phenyl)urea], the S35 entry in assay [1] (290 distinct kinases) is “C (0.20 < C ≦ 0.40)”. For the same compound, the Kd in assay [2] was below 250 nM.

As to `COc1cc2c(Oc3cccc(NC(=O)Nc4cc(C(C)(C)C)on4)c3)ncnc2cc1O[C@H]1CCN(C)C1` [Ex 97, (S)-1-(5-tert-butylisoxazol-3-yl)-3-(3-(6-methoxy-7-(1-methylpyrrolidin-3-yloxy)quinazolin-4-yloxy)phenyl)urea mono acetate], the S35 result in assay [1] (290 distinct kinases) was “C (0.20 < C ≦ 0.40)”. The Kd in assay [2] was below 250 nM.

In the case of `COc1cc2c(Oc3cccc(NC(=O)Nc4cc(C(C)(C)C)on4)c3)ncnc2cc1O[C@@H]1CCN(C)C1` [Ex 99, (R)-1-(5-tert-butylisoxazol-3-yl)-3-(3-(6-methoxy-7-(1-methylpyrrolidin-3-yloxy)quinazolin-4-yloxy)phenyl)urea mono acetate], the S35 result in assay [1] (290 distinct kinases) is “C (0.20 < C ≦ 0.40)”. Further, the Kd in assay [2] is below 250 nM.

Regarding `COc1cc2ncnc(Oc3cccc(NC(=O)Nc4cc(C(C)(C)C)on4)c3)c2cc1OC[C@H](O)CN1CCN(C)CC1` [Ex 112, (R)-1-(5-tert-butylisoxazol-3-yl)-3-(3-(6-(2-hydroxy-3-(4methylpiperazin-1-yl)propoxy)-7-methoxyquinazolin-4-yloxy)phenyl)urea], in assay [1] (290 distinct kinases), the S35 result is listed as “D (D > 0.40)”. Also, the equilibrium dissociation constant (Kd) in assay [2] is below 250 nM.

As for `COCCOc1cc2ncnc(Oc3cccc(NC(=O)Nc4cccc(C(C)(C)C)c4)c3)c2cc1OC` [Ex 119, 1-(3-tert-butylphenyl)-3-(3-(6-methoxy-7-(2-methoxyethoxy)quinazolin-4-yloxy)phenyl)urea], the S35 entry in assay [1] (value marked * (larger kinase panel)) is reported as “C* (0.20 < C ≦ 0.40)”. For the same compound, in assay [2], the Kd is below 250 nM.
